Test results from PMC8286840, “Identifying SARS-CoV-2 antiviral compounds by screening for small molecule inhibitors of Nsp3 papain-like protease” (Biochemical Journal, 2021).
Counter-ions that a name gives are not always drawn. Like-named read-outs stand apart in the source and are kept apart here.

What was measured:
[1] = target: T1, SARS-CoV-2 PLpro (nsp3 1564–1878) (Severe acute respiratory syndrome coronavirus 2, UniProt P0DTD1); assay: biochemical; design: FRET-quenched peptide (Pro3) cleavage by PLpro, 10 min pre-incubation, slope over 20 min, normalised to no-compound control; details: low concentration screen, read-out: % of control remaining
[2] = target: T1, SARS-CoV-2 PLpro (nsp3 1564–1878); assay: biochemical; design: FRET-quenched peptide (Pro3) cleavage by PLpro, 10 min pre-incubation, slope over 20 min, normalised to no-compound control; details: high concentration screen, read-out: % of control remaining

Which results are given for `CCCC[N+]1(C)[C@H]2CC(OC(=O)C(CO)c3ccccc3)C[C@H]1[C@H]1O[C@H]12` (stereo partly drawn) [Scopolamine N-butyl]?
remaining activity at 1.25 µM ([1]; Well no.=2243): 95%; remaining activity at 3.75 µM ([2]; Well no.=2243): 91.9%

`CCCC[N+]1(C)[C@@H]2C[C@@H](OC(=O)[C@H](CO)c3ccccc3)C[C@H]1[C@@H]1O[C@@H]12` (stereo partly drawn) [Scopolamine N-butylbromide] was tested. Which remaining activity at 1.25 µM ([1]; Well no.=3355) did it give?
The remaining activity at 1.25 µM was 99.9%.

And the remaining activity at 3.75 µM ([2]; Well no.=3355)?
The remaining activity at 3.75 µM was 98.9%.

What does the source list for `CN1[C@@H]2C[C@@H](OC(=O)[C@H](CO)c3ccccc3)C[C@H]1[C@@H]1O[C@@H]12` [Scopolamine]?
remaining activity at 1.25 µM ([1]; Well no.=2245): 100%; remaining activity at 3.75 µM ([2]; Well no.=2245): 100%

For `COc1cc2ccc(=O)oc2cc1O` [Scopoletin], which remaining activity at 1.25 µM ([1]; Well no.=3461) is on record?
Its remaining activity at 1.25 µM is 103%.

And the remaining activity at 3.75 µM ([2]; Well no.=3461)?
The remaining activity at 3.75 µM was 102%.

Which results are given for `O=C1C(C2=C3c4ccccc4NC3/C(=C\c3ccc(O)cc3)C2=O)=C2C(=Nc3ccccc32)/C1=C\c1ccc(O)cc1` (stereo not drawn) [Scytonemin, Lyngbya sp.]?
remaining activity at 1.25 µM ([1]; Well no.=2669): 96.6%; remaining activity at 3.75 µM ([2]; Well no.=2669): 101%

How did the remaining activity at 1.25 µM ([1]; Well no.=1124) turn out when `C[Se]C[C@H](N)C(=O)O` [Se-(methyl)selenocysteine hydrochloride] was run?
The remaining activity at 1.25 µM was 97.3%.

And the remaining activity at 3.75 µM ([2]; Well no.=1124)?
Its remaining activity at 3.75 µM is 95.6%.

With `Cc1ncc([N+](=O)[O-])n1CC(C)O` (stereo not drawn) [Secnidazole] as the molecule, how does the remaining activity at 1.25 µM ([1]; Well no.=2247) read?
Its remaining activity at 1.25 µM is 99.7%.

And the remaining activity at 3.75 µM ([2]; Well no.=2247)?
Its remaining activity at 3.75 µM is 97.7%.

With `CO[C@@H](C[C@@H]1CC[C@@H](C)[C@](O)(C(=O)C(=O)N2CCCC[C@H]2C(=O)O)O1)/C(C)=C/C=C/C=C/[C@@H](C)C[C@@H](C)C(=O)[C@H](OC)[C@H](O)/C(C)=C/[C@@H](C)C(=O)/C=C/[C@H](C)C[C@@H]1CC[C@@H](O)[C@H](OC)C1` [Seco Rapamycin (sodium salt)] as the molecule, how does the remaining activity at 1.25 µM ([1]; Well no.=7642) read?
The remaining activity at 1.25 µM was 97.4%.

And the remaining activity at 3.75 µM ([2]; Well no.=7642)?
Its remaining activity at 3.75 µM is 95.9%.

For `O=C1C=C2C=C[C@@H]3C[C@@]2(O1)[C@H]1CCCCN31` [Securinine], which remaining activity at 1.25 µM ([1]; Well no.=3749) is on record?
The remaining activity at 1.25 µM was 99.6%.

And the remaining activity at 3.75 µM ([2]; Well no.=3749)?
The remaining activity at 3.75 µM was 100%.

What does the source list for `CCCCC1OC(=O)C2=CCCCC21` (stereo not drawn) [Sedanolide]?
remaining activity at 1.25 µM ([1]; Well no.=3751): 92.6%; remaining activity at 3.75 µM ([2]; Well no.=3751): 98.7%

What does the source list for `CC(C)[C@@H]1NC(=O)[C@H](CCCCN)NC(=O)[C@@H](Cc2c[nH]c3ccccc23)NC(=O)[C@H](Cc2ccc(O)cc2)NC(=O)[C@H](C)N(C)C(=O)[C@H](Cc2ccccc2)NC1=O` [Seglitide]?
remaining activity at 1.25 µM ([1]; Well no.=1452): 97%; remaining activity at 3.75 µM ([2]; Well no.=1452): 97.2%

Which remaining activity at 1.25 µM ([1]; Well no.=4141) does the source give for `C[Se]CC[C@H](N)C(=O)O` [Selenomethionine] here?
Its remaining activity at 1.25 µM is 97.8%.

What about the remaining activity at 3.75 µM ([2]; Well no.=4141) of the same molecule?
Its remaining activity at 3.75 µM is 98.7%.

`CC(C)[C@H](O)C(=O)N[C@@H](C)C(=O)N[C@@H]1C(=O)N(C)CCc2ccccc21` [Semagacestat (LY450139)] was tested. Which remaining activity at 1.25 µM ([1]; Well no.=4614) did it give?
Its remaining activity at 1.25 µM is 102%.

And the remaining activity at 3.75 µM ([2]; Well no.=4614)?
The remaining activity at 3.75 µM was 101%.

What does the source list for `NNC(N)=O` [Semicarbazide hydrochloride]?
remaining activity at 1.25 µM ([1]; Well no.=1406): 99.7%; remaining activity at 3.75 µM ([2]; Well no.=1406): 99.4%

For `C/C=C1/C[C@@H](C)[C@@](C)(O)C(=O)OCC2=CCN3CC[C@@H](OC1=O)[C@@H]23` [Senecionine], which remaining activity at 1.25 µM ([1]; Well no.=3464) is on record?
Its remaining activity at 1.25 µM is 98.3%.

And the remaining activity at 3.75 µM ([2]; Well no.=3464)?
The remaining activity at 3.75 µM was 99.1%.

How did the remaining activity at 1.25 µM ([1]; Well no.=1183) turn out when `C[C@H](O)C(=O)C1=Nc2c(nc(N)[nH]c2=O)NC1` [Sepiapterin] was run?
Its remaining activity at 1.25 µM is 99.7%.

What about the remaining activity at 3.75 µM ([2]; Well no.=1183) of the same molecule?
Its remaining activity at 3.75 µM is 96.3%.

Which results are given for `CC1=C(C)C(=O)C(C(CCCCCC(=O)O)c2ccccc2)=C(C)C1=O` (stereo not drawn) [Seratrodast]?
remaining activity at 1.25 µM ([1]; Well no.=3857): 98.1%; remaining activity at 1.25 µM ([1]; Well no.=7375): 103%; remaining activity at 3.75 µM ([2]; Well no.=3857): 102%; remaining activity at 3.75 µM ([2]; Well no.=7375): 103%

Which remaining activity at 1.25 µM ([1]; Well no.=6730) does the source give for `c1ccc2c(CCNc3ccc(Nc4ccncc4)cc3)c[nH]c2c1` [Serdemetan] here?
The remaining activity at 1.25 µM was 97.7%.

And the remaining activity at 3.75 µM ([2]; Well no.=6730)?
The remaining activity at 3.75 µM was 101%.

For `NCCc1c[nH]c2ccc(O)cc12` [Serotonin hydrochloride], which remaining activity at 1.25 µM ([1]; Well no.=616) is on record?
Its remaining activity at 1.25 µM is 98.2%.

What about the remaining activity at 3.75 µM ([2]; Well no.=616) of the same molecule?
The remaining activity at 3.75 µM was 100%.

`Clc1ccc(C(Cn2ccnc2)OCc2csc3c(Cl)cccc23)c(Cl)c1` (stereo not drawn) [Sertaconazole nitrate] was tested. Which remaining activity at 1.25 µM ([1]; Well no.=5411) did it give?
The remaining activity at 1.25 µM was 89.7%.

What about the remaining activity at 3.75 µM ([2]; Well no.=5411) of the same molecule?
The remaining activity at 3.75 µM was 93%.

What does the source list for `Clc1ccc(C(Cn2ccnc2)OCc2csc3c(Cl)cccc23)c(Cl)c1` (stereo not drawn) [Sertaconazole]?
remaining activity at 1.25 µM ([1]; Well no.=1840): 101%; remaining activity at 3.75 µM ([2]; Well no.=1840): 98.3%

With `O=C1NCCN1CCN1CCC(c2cn(-c3ccc(F)cc3)c3ccc(Cl)cc23)CC1` [Sertindole] as the molecule, how does the remaining activity at 1.25 µM ([1]; Well no.=5420) read?
The remaining activity at 1.25 µM was 98.4%.

And the remaining activity at 1.25 µM ([1]; Well no.=6604)?
The remaining activity at 1.25 µM was 93.4%.

What about the remaining activity at 3.75 µM ([2]; Well no.=5420) of the same molecule?
Its remaining activity at 3.75 µM is 102%.

What about the remaining activity at 3.75 µM ([2]; Well no.=6604) of the same molecule?
Its remaining activity at 3.75 µM is 96.1%.

`O=C(O)Cn1c2c(c3cc(F)ccc31)CN(C(=O)c1cccc3ccccc13)CC2` [Setipiprant] was tested. Which remaining activity at 1.25 µM ([1]; Well no.=7707) did it give?
The remaining activity at 1.25 µM was 99.9%.

What about the remaining activity at 3.75 µM ([2]; Well no.=7707) of the same molecule?
Its remaining activity at 3.75 µM is 103%.

Which results are given for `CN1CCC2=C(C1)c1ccccc1Cc1ccccc12` [Setiptiline (maleate)]?
remaining activity at 1.25 µM ([1]; Well no.=6907): 101%; remaining activity at 3.75 µM ([2]; Well no.=6907): 101%

For `CN1CCC2=C(C1)c1ccccc1Cc1ccccc12` [Setiptiline], which remaining activity at 1.25 µM ([1]; Well no.=6857) is on record?
The remaining activity at 1.25 µM was 98.8%.

And the remaining activity at 3.75 µM ([2]; Well no.=6857)?
Its remaining activity at 3.75 µM is 94.5%.

How did the remaining activity at 1.25 µM ([1]; Well no.=3116) turn out when `O=C(O)C1=C[C@@H](O)[C@@H](O)[C@H](O)C1` [Shikimic acid] was run?
The remaining activity at 1.25 µM was 98.2%.

What about the remaining activity at 1.25 µM ([1]; Well no.=7209) of the same molecule?
The remaining activity at 1.25 µM was 104%.

What about the remaining activity at 3.75 µM ([2]; Well no.=3116) of the same molecule?
The remaining activity at 3.75 µM was 98.6%.

What about the remaining activity at 3.75 µM ([2]; Well no.=7209) of the same molecule?
Its remaining activity at 3.75 µM is 102%.

With `CC(C)CC(N(C)C)C1(c2ccc(Cl)cc2)CCC1` (stereo not drawn) [Sibutramine] as the molecule, how does the remaining activity at 1.25 µM ([1]; Well no.=2249) read?
The remaining activity at 1.25 µM was 95.2%.

And the remaining activity at 3.75 µM ([2]; Well no.=2249)?
The remaining activity at 3.75 µM was 98.7%.

How did the remaining activity at 1.25 µM ([1]; Well no.=2154) turn out when `CN/C(=N\c1ccc(C2=NNC(=O)CC2C)cc1)NC#N` (stereo not drawn) [Siguazodan] was run?
Its remaining activity at 1.25 µM is 91.7%.

What about the remaining activity at 3.75 µM ([2]; Well no.=2154) of the same molecule?
The remaining activity at 3.75 µM was 94.5%.

For `CCCc1nn(C)c2c(=O)[nH]c(-c3cc(S(=O)(=O)N4CCN(C)CC4)ccc3OCC)nc12` [Sildenafil Mesylate], which remaining activity at 1.25 µM ([1]; Well no.=8206) is on record?
The remaining activity at 1.25 µM was 106%.

And the remaining activity at 3.75 µM ([2]; Well no.=8206)?
Its remaining activity at 3.75 µM is 103%.

How did the remaining activity at 1.25 µM ([1]; Well no.=4821) turn out when `CCCc1nn(C)c2c(=O)[nH]c(-c3cc(S(=O)(=O)N4CCN(C)CC4)ccc3OCC)nc12` [Sildenafil citrate] was run?
The remaining activity at 1.25 µM was 94.7%.

And the remaining activity at 3.75 µM ([2]; Well no.=4821)?
Its remaining activity at 3.75 µM is 94.2%.

For `CCCc1nn(C)c2c(=O)[nH]c(-c3cc(S(=O)(=O)N4CCN(C)CC4)ccc3OCC)nc12` [Sildenafil], which remaining activity at 1.25 µM ([1]; Well no.=1836) is on record?
Its remaining activity at 1.25 µM is 99.2%.

And the remaining activity at 3.75 µM ([2]; Well no.=1836)?
Its remaining activity at 3.75 µM is 96.8%.

With `C[C@H](Cc1cc2c(c(C(N)=O)c1)N(CCCO)CC2)NCCOc1ccccc1OCC(F)(F)F` [Silodosin] as the molecule, how does the remaining activity at 1.25 µM ([1]; Well no.=6759) read?
The remaining activity at 1.25 µM was 101%.

And the remaining activity at 3.75 µM ([2]; Well no.=6759)?
The remaining activity at 3.75 µM was 102%.

`COC(=O)[C@H]1[C@@H](O)[C@@]2(O)c3c(OC)cc(O[C@@H]4O[C@@H]([C@H](O)CO)CO[C@H]4OC)cc3O[C@@]2(c2ccc(OC)cc2)[C@@H]1c1ccccc1` [Silvestrol] was tested. Which remaining activity at 1.25 µM ([1]; Well no.=7120) did it give?
Its remaining activity at 1.25 µM is 103%.

What about the remaining activity at 3.75 µM ([2]; Well no.=7120) of the same molecule?
Its remaining activity at 3.75 µM is 101%.
